# From a melting point compilation (Tetko et al.; mined from patent text by program, amines drawn as free bases though some values may be those of a salt)
row,SMILES,melting point
1,Cc1c(C#N)ncn1-c1cccc(O)c1,205 to 207 °C
2,CCCCc1ccc(S(=O)(=O)CC(O)(CS(=O)(=O)c2ccc(OC)cc2)C(=O)NO)cc1 (stereo not given),63 to 68 °C
3,O=C(CCl)c1ccc(Cl)c(S(=O)(=O)NC2CCCCC2)c1,117 °C
4,COc1ccc(C2=C(c3ccc(S(C)(=O)=O)cc3)CCC2)cc1,129 to 130 °C
5,Cc1ccc(Cl)c(N2C(=O)C(=O)c3ccccc32)c1Cl,164 to 166 °C
6,CC(c1cc(C(C)(C)C#N)cc(C(C)(C)C#N)c1)n1ccnc1 (stereo not given),77 to 80 °C
7,CC(C)(C)c1ccc(/C=N/OCCOc2ccc(C(=O)O)c(OC(=O)c3ccccc3)c2)cc1,129 to 131 °C
8,CC(C)(Cc1nc2c(N)nc3ccccc3c2s1)OC(N)=O,222 to 223 °C
9,O=C(O)c1cccc(C(=O)O)c1Nc1cccc(I)c1,214 to 216 °C
10,COC(=O)CCCc1cc2nc(Cl)ccc2n1S(=O)(=O)c1ccc(I)cc1,117 to 118 °C
11,Cc1cc(CNC(=O)c2nc3scc(COCc4ccc(C(=O)O)cc4)c3c(=O)[nH]2)ccc1F,246 to 248 °C
12,CCCCc1ncc(-c2cccc(C(=O)O)c2)n1Cc1ccccc1Cl,200 to 202 °C
13,CCOC(=O)CNC1=C(C(=O)c2cccnc2Cl)CCC1,114 to 118 °C
14,COc1cc2c(C)c(C#N)cnc2cc1F,177 to 179 °C
15,CC(=O)OCCN1C(=O)C(=Cc2cc(C(C)(C)C)c(O)c(C(C)(C)C)c2)SC1=S,140 to 143 °C
16,CCCSc1nc(-c2ccc(OC)cc2)c(-c2ccc(OC)cc2)s1,58 to 60 °C
17,CS(=O)(=O)c1ccc(-c2cnn(-c3cccc(Br)c3)c(=O)c2Oc2ccc(F)cc2)cc1,208 to 210 °C
18,CCCCCCNc1cccc2c1C(=O)c1cccc(NCCCCCC)c1C2=O,142 to 144 °C
19,OCC12CO[C@@H](c3ccc(C(F)(F)F)cc3)N1[C@H](c1ccc(C(F)(F)F)cc1)OC2,120 °C
20,CCc1ccc(S(=O)(=O)Nc2ccccc2/C=C/c2ccncc2)cc1,232 to 234 °C
21,CCCCOc1cccc(CCNC(=O)C=CC2CCCCC2)c1,67 to 71 °C
22,Cc1c(C(=O)Nc2ccc(N3CCNCC3)c(C#N)c2)cnn1-c1ccc(Cl)cc1,184 °C
23,CCOC(=O)CSc1ccc(-c2nc3cnccc3[nH]2)cc1,230 °C
24,FC(F)(F)c1cc(Cl)ccc1N=C(Cl)n1cncn1,165 to 166 °C
25,Cc1cc(Oc2ccc3nc(COc4ccc(CC5SC(=O)NC5=O)cc4)n(C)c3c2)cc(C)c1N (stereo not given),209 to 211 °C

row,SMILES,melting point
1,CC(C)C1(C)N=C(c2ncc(C=O)cc2C(=O)O)NC1=O (stereo not given),187 to 198 °C
2,CC(=O)N1C(=O)C(C(=O)c2ccco2)c2ccccc21 (stereo not given),138 °C
3,COc1ccc(C2=N[C@H](c3ccccc3)[C@@H](OC(=O)Oc3ccc([N+](=O)[O-])cc3)CO2)cc1 (racemic),164 °C
4,Brc1ccc2c(c1)N=C(N1CCOCC1)c1cccc3c1N2CC3,216 to 218 °C
5,CCOC(=O)c1cn(CC)c2nc(N3CCN(C)CC3)ccc2c1=O,130 °C
6,COc1nc(CO)ccc1CN1CC1C#N (stereo not given),68 to 70 °C
7,O=C1NCc2c(-c3ccccc3)cccc2N1c1ccccc1,234 to 235 °C
8,CCN(CC)CCOc1ccc(Nc2ncc3c(n2)N(Cc2ccccc2)C(=O)N(c2c(Cl)cccc2Cl)C3)cc1,106 °C
9,CC(=O)N1CCN(c2cc(Cl)c(Cl)c(Cl)c2)CC1,133 to 136 °C
10,O=C(O)C=CCCCCCc1cccc2cncn12,110 to 111 °C
11,NCCOc1cc(Cl)cc([N+](=O)[O-])c1N,156 to 157 °C
12,O=c1c(-c2ccc(NS(=O)(=O)c3ccccc3)cc2)coc2cc(O)c(O)cc12,285 to 286 °C
13,C[C@H](NC(=O)c1c[nH]c2ncc(-c3ccc(C(=O)NCc4cccc(C#N)c4)s3)nc12)C(C)(C)C,171 to 174 °C
14,CC(C)(C)OC(=O)N1CCC[C@@H](Nc2nccc(-c3c(-c4cccc(C(N)=O)c4)nc4sccn34)n2)C1,161 to 165 °C
15,CC(C)NC(=O)NC1CCC(=O)c2ccccc21 (stereo not given),185 to 188 °C
16,O=C1NC(=O)C(S(=O)(=O)c2ccc(Br)cc2)S1 (stereo not given),156 to 158 °C
17,Cc1ccc(N2C(=O)C(O)=C(C(=O)c3ccc(C(C)C)cc3)C2c2ccc(OC3CC3)cc2)nn1 (stereo not given),285 to 288 °C
18,O=C1NC(=O)c2c1cc1ccc3c(c1c2-c1ccc(C(F)(F)F)cc1)OCO3,304 to 306 °C
19,COc1ccc(/C=N/Nc2ccccc2C(=O)O)cc1OC1CCCC1,174 to 176 °C
20,COCC(=O)N(c1c(C)ccc(Cl)c1C)C1CCOC1=O (stereo not given),80 to 82 °C
21,O=S(CBr)c1ccc2c(c1)OCO2 (stereo not given),88 to 89 °C
22,CC(C)(C)c1nc(C(=O)c2ccccc2)nc(C(C)(C)C)c1O,129 to 131 °C
23,O=C1Nc2ccccc2C12CCC2,140 to 145 °C
24,Nc1nc2cc(Br)ccc2c2c1nc1n2CCCO1,273 to 276 °C
25,Cn1cc(S(N)(=O)=O)c(=O)c2ccc(Cl)cc21,235 to 237 °C
